Experimental data from patent US20250353835A1, “N-TETRAZOLYL ARYL UREA-BASED DERIVATIVES, PREPARATION METHOD THEREFOR, AND USE THEREOF” (Hangzhou Yirui Pharmaceutical Technology Co., Ltd, priority 2022, published 2025).

Biological target: T1, human B1R (Homo sapiens, UniProt P46663)
T1 construct: host or cells: HEK293
T1 sequence (P46663 1-353): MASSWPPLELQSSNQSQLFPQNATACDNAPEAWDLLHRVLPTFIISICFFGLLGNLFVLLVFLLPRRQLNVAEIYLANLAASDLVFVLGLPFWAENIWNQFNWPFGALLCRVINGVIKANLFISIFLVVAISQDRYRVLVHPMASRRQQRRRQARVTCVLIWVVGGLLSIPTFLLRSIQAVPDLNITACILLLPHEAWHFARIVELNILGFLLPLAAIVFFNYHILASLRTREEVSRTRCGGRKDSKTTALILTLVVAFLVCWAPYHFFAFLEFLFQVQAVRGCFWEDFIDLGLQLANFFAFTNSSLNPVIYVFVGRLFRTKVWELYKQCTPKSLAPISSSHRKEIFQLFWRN
Assay: FLIPR calcium ion flux assay, inhibitory activity against human B1R
Type: cell-based
Conditions: HEK293 cells stably expressing human B1R; agonist [Lys-des-Arg9]-Bradykinin 4.6 nM (EC80); FLIPR method
Method: The inhibitory activity of the compounds against human B1R and B2R channels was determined by calcium ion flux assay using fluorometric imaging plate reader (FLIPR method). See literatures of Lee, Chen et al. for the method. [Lee et al. 2008][Chen et al. 2011]
1. Cell culture: HEK293 recombinant cell lines (WuXi AppTec, Shanghai, China) stably expressing human B1R and B2R were cultured in DMEM (Invitrogen, Cat #11965) medium containing 10% calf serum (Excellbio, Cat #FSP500), 5 μg/ml Geneticin (Invitrogen, Cat #10131) and Penicillin/Streptomycin (Invitrogen, Cat #15140). The incubator conditions were 37° C. and ambient humidity containing 5% CO2.
2. Preparation of the cell assay plate: B1R and B2R cells were seeded in a 384-well assay plate (Greiner, Cat #781090) at a density of 20,000 cells per well (20 μl/well), and cultured overnight at 37° C. in an incubator with 5% CO2. The next day, Fluo-4 Direct™ Loading Buffer (containing 5 mM Probenicid) containing 2× (8 μM) Fluo-4 Direct (Invitrogen, Cat #F10471) was added to each of the wells. The cells were cultured at 37° C. for 50 min, and then culture for at the room temperature 10 min.
3. Preparation of the compound assay plate: The compound was dissolved in 100% DMSO to make a 30 mM stock solution and stored at −20° C. On the day of use, the stock solution of the compound was thawed at the room temperature. Each of the compounds was serially diluted at 1:5 in DMSO culture medium with a starting concentration of 30 μM for 9 concentration points on a 384-well plate. Each of compounds was diluted in duplicate for testing. [Des-Arg10]-HOE140 was used as a positive control compound, and diluted in the same manner with a starting concentration of 3 μM.
4. FLIPR assay: The cell assay plate was placed in a FLIPR instrument ([…]). The compounds in the compound assay plate were added to the corresponding wells on the cell assay plate (10 μL/well) using an automatic program. The calcium ion fluorescence signal was recorded to determine whether the compound may have agonist activity. After 10 minutes, a B1R agonist [Lys-des-Arg9]-Bradykinin2 (10 μL/well) with a final concentration of 4.6 nM (EC80) was added to each of the wells to stimulate the generation of intracellular calcium ion flux signals. The Ca^++-dependent fluorescence signal was continuously monitored at a wavelength of 538 nm to analyze the inhibitory activity of the compound.
5. Data analysis: The data was collected and analyzed by a FLIPR program. The inhibitory (or agonist) activity of the compound at each concentration was evaluated by the fluorescence peak. The IC50 values of the compounds were calculated using EXCEL and PRISM programs.

Row | IC50 [nM] | Structure (SMILES)
1 | 35.4 | COc1ccc(-c2ccc(NC(=O)NC3CCC(C(C)(C)C)CC3)cc2-c2nn[nH]n2)cc1OC (stereo not shown) [Compound 59, 1-(4-(tert-butyl)cyclohexyl)-3-(3′,4′-dimethoxy-2-(2H-tetrazol-5-yl)-[1,1′-biphenyl]-4-yl)urea]
2 | 448 | CC(C)(C)C1CCN(C(=O)Nc2ccc(C3C=COCC3)c(-c3nn[nH]n3)c2)CC1 (stereo not shown) [Compound 41, 4-(tert-butyl)-N-(4-(3,4-dihydro-2H-pyran-4-yl)-3-(2H-tetrazol-5-yl)phenyl)piperidine-1-carboxamide]
3 | 7490 | C[C@H]1CC[C@H](NC(=O)Nc2ccc(C3CCOCC3)c(-c3nn[nH]n3)c2)CC1 [Compound 68, 1-((trans)-4-methylcyclohexyl)-3-(4-(tetrahydro-2H-pyran-4-yl)-3-(2H-tetrazol-5-yl)phenyl)urea]
4 | 60.2 | COc1ccc(-c2ccc(NC(=O)N[C@H]3CC[C@H](C)CC3)cc2-c2nn[nH]n2)cc1OC [Compound 62, 1-(3′,4′-dimethoxy-2-(2H-tetrazol-5-yl)-[1,1′-biphenyl]-4-yl)-3-((trans)-4-methylcyclohexyl)urea]
5 | 95.2 | CC(C)(C)C1CCN(C(=O)Nc2ccc(C(=O)OC3CCCC3)c(-c3nn[nH]n3)c2)CC1 [Compound 43, cyclopentyl 4-(4-(tert-butyl)piperidine-1-formamido)-2-(2H-tetrazol-5-yl)benzoate]
6 | 35.7 | CCOC(=O)c1ccc(NC(=O)N2CCC(C)CC2)cc1-c1nn[nH]n1 [Compound 24, ethyl 4-(4-methylpiperidine-1-formamido)-2-(2H-tetrazol-5-yl)benzoate]
7 | 17.8 | Cc1ccc(-c2ccc(NC(=O)N3CCC(C(C)(C)C)CC3)cc2-c2nn[nH]n2)cn1 [Compound 51, 4-(tert-butyl)-N-(4-(6-methylpyrid-3-yl)-3-(2H-tetrazol-5-yl)phenyl)piperidine-1-carboxamide]
8 | 30.2 | COc1ccc(-c2ccc(NC(=O)N3CCC(C)CC3)cc2-c2nn[nH]n2)cc1Cl [Compound 22, N-(3′-chloro-4′-methoxy-2-(2H-tetrazol-5-yl)-[1,1′-biphenyl]-4-yl)-4-methylpiperidine-1-carboxamide]
9 | 57.8 | CCOc1ccc(-c2ncc(NC(=O)N3CCC(C(C)(C)C)CC3)cc2-c2nn[nH]n2)cn1 [Compound 7, 4-(tert-butyl)-N-(6′-ethoxy-3-(2H-tetrazol-5-yl)-[2,3′-bipyridyl]-5-yl)piperidine-1-carboxamide]
10 | 13700 | C[C@H]1CC[C@H](NC(=O)Nc2ccc(OC3CCOCC3)c(-c3nn[nH]n3)c2)CC1 [Compound 73]
11 | 24.5 | COc1ccc(-c2ccc(NC(=O)N3CCC(C(F)(F)F)CC3)cc2-c2nn[nH]n2)cc1Cl [Compound 28, N-(3′-chloro-4′-methoxy-2-(2H-tetrazol-5-yl)-[1,1′-biphenyl]-4-yl)-4-(trifluoromethyl)piperidine-1-carboxamide]
12 | 67.9 | Cc1ccc(NC(=O)c2c(F)cc(NC(=O)N3CCC(C(C)(C)C)CC3)cc2-c2nn[nH]n2)nc1 [Compound 54, 4-(tert-butyl)-N-(3-fluoro-4-((5-methylpyridin-2-yl)aminoformyl)-5-(2H-tetrazol-5-yl)phenyl)piperidine-1-carboxamide]
13 | 28.2 | CCOC(=O)c1ccc(NC(=O)N2CCC(C(C)(C)C)CC2)cc1-c1nn[nH]n1 [Compound 16, ethyl 4-(4-(tert-butyl)piperidine-1-formamido)-2-(2H-tetrazol-5-yl)benzoate]
14 | 23.5 | COc1ccc(-c2ccc(NC(=O)N3CCC(C(C)(C)C)CC3)cc2-c2nn[nH]n2)cc1Cl [Compound 14, 4-(tert-butyl)-N-(3′-chloro-4′-methoxy-2-(2H-tetrazol-5-yl)-[1,1′-biphenyl]-4-yl)piperidine-1-carboxamide]
15 | 82.4 | CC(C)(C)C1CCN(C(=O)Nc2ccc(-c3ccc4c(c3)OCO4)c(-c3nn[nH]n3)c2)CC1 [Compound 39, N-(4-(benzo[d][1,3]dioxolan-5-yl)-3-(2H-tetrazol-5-yl)phenyl)-4-(tert-butyl)piperidine-1-carboxamide]
16 | 8.6 | CC(C)(C)c1cn(-c2ccc(NC(=O)N3CCC(C(C)(C)C)CC3)cc2-c2nn[nH]n2)cn1 [Compound 58, 4-(tert-butyl)-N-(4-(4-(tert-butyl)-1H-imidazol-1-yl)-3-(2H-tetrazol-5-yl)phenyl)piperidine-1-carboxamide]
17 | 54.8 | COc1cncc(-c2c(F)cc(NC(=O)N3CCC(C(C)(C)C)CC3)cc2-c2nn[nH]n2)c1 [Compound 50, 4-(tert-butyl)-N-(3-fluoro-4-(5-methoxypyrid-3-yl)-5-(2H-tetrazol-5-yl)phenyl) piperidine-1-carboxamide]
18 | 32.3 | COc1ccc(-c2c(F)cc(NC(=O)N3CCC(C)CC3)cc2-c2nn[nH]n2)cc1OC [Compound 20, N-(2-fluoro-3′,4′-dimethoxy-6-(2H-tetrazol-5-yl)-[1,1′-biphenyl]-4-yl)-4-methyl piperidine-1-carboxamide]
19 | 103 | CCOC(=O)c1ccc(NC(=O)N2CCC(C(C)(C)C)CC2)cc1-c1nn[nH]n1 [Compound 45, ethyl 4-(4-(tert-butyl)piperidine-1-formamido)-2-(2H-tetrazol-5-yl)benzoate]
20 | 303 | CC(C)(C)[C@H]1CC[C@@H](NC(=O)Nc2ccc(-c3ccc4c(c3)OCO4)c(-c3nn[nH]n3)c2)CC1 [Compound 70, 1-(4-(benzo[d][1,3]dioxolan-5-yl)-3-(2H-tetrazol-5-yl)phenyl)-3-((cis)-4-(tert-butyl)cyclohexyl)urea]
21 | 54.4 | COc1ccc(-c2c(F)cc(NC(=O)N3CCC(C(F)(F)F)CC3)cc2-c2nn[nH]n2)cc1OC [Compound 26, N-(2-fluoro-3′,4′-dimethoxy-6-(2H-tetrazol-5-yl)-[1,1′-biphenyl]-4-yl)-4-(trifluoromethyl)piperidine-1-carboxamide]
22 | 162 | CCOc1ccc(-c2ccc(NC(=O)N3CCC(C)CC3)cc2-c2nn[nH]n2)cn1 [Compound 5, N-(4-(6-ethoxypyrid-3-yl)-3-(2H-tetrazol-5-yl)phenyl)-4-methylpiperidine-1-carboxamide]
23 | 247 | COc1ccc(-c2ccc(NC(=O)Nc3ccc(C(F)(F)F)cc3)cc2-c2nn[nH]n2)cc1OC [Compound 60, 1-(3′,4′-dimethoxy-2-(2H-tetrazol-5-yl)-[1,1′-biphenyl]-4-yl)-3-(4-(trifluoromethyl)phenyl)urea]
24 | 5320 | COc1ccc(-c2ccc(NC(=O)N3CCC4CCOC4C3)cc2-c2nn[nH]n2)cc1OC (stereo not shown) [Compound 4, N-(3′,4′-dimethoxy-2-(2H-tetrazol-5-yl)-[1,1′-biphenyl]-4-yl)hexahydrofuro[2,3-c]pyridine-6(2H)-carboxamide]
25 | 106 | CC(C)(C)C1CCN(C(=O)Nc2ccc(C(=O)OC3CCOC3)c(-c3nn[nH]n3)c2)CC1 (stereo not shown) [Compound 44, tetrahydrofuran-3-yl 4-(4-(tert-butyl)piperidine-1-formamido)-2-(2H-tetrazol-5-yl)benzoate]
